Literature values as cited in patent US5138036A, “Isolation and structural elucidation of the cytostatic cyclodepsipeptide dolastatin 14” (Arizona Board of Regents acting on behalf of Arizona State …, priority 1989, dated 1992).

What was measured:
B16 melanoma = conditions: 1.44-11.1 μg/kg
[1] = tested on: P388 lymphocytic leukemia (PS system); conditions: 1-4 μg/kg
human melanoma xenograph = conditions: 3.25-26 μg/kg

In the case of CC[C@H](C)[C@@H]([C@@H](CC(=O)N1CCC[C@H]1[C@H](OC)[C@@H](C)C(=O)N[C@@H](Cc1ccccc1)c1nccs1)OC)N(C)C(=O)[C@@H](NC(=O)[C@H](C(C)C)N(C)C)C(C)C [dolastatin 10], the life extension (B16 melanoma) is given as 42-138%, the life extension [1] is given as 69-102% and the curative response (human melanoma xenograph) is given as 17-67%.
